Laboratory results from article PMC12519282, “Reduction of Negative Charge in Mercaptoacetyl-Based Chelators Influences the Biodistribution of Prostate-Specific Membrane Antigen-Targeting Pseudopeptides Labeled with Technetium-99m” (ACS Pharmacology & Translational Science, 2025).
Like-named read-outs stand apart in the source and are kept apart here. Marks after values point to notes of the source that are not given here.

Experiments:
[1] = format: in vitro ADME, murine; settings: 1 h
Protocol: (§1) To evaluate the label’s stability, 10 μL (0.25 μg) of radiolabeled conjugates was incubated with 300× molar excess of cysteine or with PBS for 1 h at room temperature. The test was run in triplicate. The release of free technetium-99m was controlled by using iTLC and radio-HPLC analysis. The stability in serum was analyzed by mixing the radioconjugates (0.25 μg in 10 μL) with murine serum or PBS (40 μL) as a control. The samples were incubated for 1 h at 37 °C and analyzed by iTLC. The experiment was performed in triplicate. The octanol–water distribution coefficient (Log D) was determined experimentally by the addition of 100 pmol of the radiolabeled tracer to an Eppendorf tube containing PBS (500 μL) and n-octanol (500 μL), pH ∼ 7.4. The solution was vortexed and centrifuged, and aliquots (50 μL) from each phase were collected and measured using a gamma counter. The experiment was performed in triplicate.

physchem = format: physicochemical; settings: pH 7.4
Protocol: as §1

PC3-pip cells [2] = test: in vitro binding specificity test; format: cell-based; settings: 1 h, 37 °C
Protocol: For the in vitro binding specificity test, approximately 8 × 10^5 PC3-pip cells per well were seeded 24 h before the experiment. […] Technetium-99m-labeled tracers were added to each well to reach a concentration of 2 nM. After 1 h of incubation at 37 °C, cells were washed with PBS solution, detached, and collected. Cell-associated activity was measured using a gamma counter and presented as the percentage of added activity.

PSMA = target: T1, PSMA (Homo sapiens, UniProt Q04609); test: binding kinetics in real time on living PC3-pip cells (LigandTracer Yellow)
T1 construct: expressed in transfected cells; host or cells: PC3-pip (PSMA-transfected PC-3 prostate carcinoma cells), from Prof; Martin G. Pomper, Johns Hopkins University
Protocol: The binding kinetics of technetium-99m-labeled BQ0413, BQ0500, and BQ0501 were determined in PC3-pip cells in real-time using LigandTracer Yellow (Ridgeview Instruments AB, Uppsala, Sweden). The activity binding was recorded with 5 nM radiolabeled tracers for 150 min. After the binding kinetics were measured, the medium containing the labeled tracer was replaced with fresh medium, and the dissociation was monitored over 7 h. The association rate (k a) and the dissociation rate (k d) were computed using a 1:2 kinetic binding model in TraceDrawer software (Ridgeview Instruments AB, Uppsala, Sweden), and the equilibrium dissociation constant K D was calculated.

PC3-pip cells [3] = test: cellular processing (membrane-bound / internalized activity); format: cell-based; settings: 2 nM, continuous incubation, after 8 h
Protocol: To evaluate cellular processing of technetium-99m-labeled BQ0500 and BQ0501, PC3-pip cells were incubated with the radiolabeled tracer (2 nM), and at 1, 2, 4, and 8 h of continuous incubation, the membrane-bound and internalized fractions were collected as previously described using 4 M urea solution in 0.2 M glycine buffer (pH 2) to collect membrane-bound fraction and 1 N solution of NaOH to collect the internalized fraction. The activity in the samples was measured, and the percentage of membrane-bound and internalized activity was calculated. The experiments were performed in triplicate.

PC3-pip xenografts = test: biodistribution and tumor targeting in PC3-pip tumor-bearing mice; format: in vivo
From the text: The injected masses for the in vivo experiments were chosen based on the findings for [^99mTc]-Tc-BQ0413: to study the general biodistribution of radiolabeled tracers in normal mice (NMRI), 40 pmol of tracer was used to avoid blocking of PSMA-mediated uptake in kidneys and salivary glands, to study tumor targeting, 5 nmol of tracer was used to decrease uptake in PSMA-expressing organs.
PSMA-expressing PCa xenografts were implanted in BALB/c nu/nu mice by subcutaneous injection of the PC3-pip cell suspension in PBS (10^7 cells/animal in 100 μL). The average animal weight in the experiment was 18 ± 2 g. The average tumor weight was 0.4 ± 0.2 g. For in vivo specificity control, 10^7 cells/animal PSMA-negative PC-3 cells were implanted. The average animal weight was 18 ± 1 g. The average tumor weight was 0.1 ± 0.1 g. Four mice per data point were used in the in vivo experiments.
For tumor-bearing mice, each mouse was intravenously injected with 5 nmol of [^99mTc]-Tc-BQ0413, [^99mTc]-Tc-BQ0500, and [^99mTc]-Tc-BQ0501 (60 kBq; the mass of the injected compound was adjusted with an unlabeled tracer). The mice were euthanized after lethal intraperitoneal injection of ketamine/xylazine, followed by exsanguination 1 and 3 h pi, similarly to the procedure described above.

[4] = PC3-pip tumor-bearing mice, 5 nmol/mouse iv, 1 h pi
[5] = PC3-pip tumor-bearing mice, 5 nmol/mouse iv, 3 h pi
[6] = PC3-pip tumor-bearing mice, 5 nmol/mouse iv, 3 h pi, listed as [99mTc]Tc-BQ0500

T1 sequence (Q04609 whole entry): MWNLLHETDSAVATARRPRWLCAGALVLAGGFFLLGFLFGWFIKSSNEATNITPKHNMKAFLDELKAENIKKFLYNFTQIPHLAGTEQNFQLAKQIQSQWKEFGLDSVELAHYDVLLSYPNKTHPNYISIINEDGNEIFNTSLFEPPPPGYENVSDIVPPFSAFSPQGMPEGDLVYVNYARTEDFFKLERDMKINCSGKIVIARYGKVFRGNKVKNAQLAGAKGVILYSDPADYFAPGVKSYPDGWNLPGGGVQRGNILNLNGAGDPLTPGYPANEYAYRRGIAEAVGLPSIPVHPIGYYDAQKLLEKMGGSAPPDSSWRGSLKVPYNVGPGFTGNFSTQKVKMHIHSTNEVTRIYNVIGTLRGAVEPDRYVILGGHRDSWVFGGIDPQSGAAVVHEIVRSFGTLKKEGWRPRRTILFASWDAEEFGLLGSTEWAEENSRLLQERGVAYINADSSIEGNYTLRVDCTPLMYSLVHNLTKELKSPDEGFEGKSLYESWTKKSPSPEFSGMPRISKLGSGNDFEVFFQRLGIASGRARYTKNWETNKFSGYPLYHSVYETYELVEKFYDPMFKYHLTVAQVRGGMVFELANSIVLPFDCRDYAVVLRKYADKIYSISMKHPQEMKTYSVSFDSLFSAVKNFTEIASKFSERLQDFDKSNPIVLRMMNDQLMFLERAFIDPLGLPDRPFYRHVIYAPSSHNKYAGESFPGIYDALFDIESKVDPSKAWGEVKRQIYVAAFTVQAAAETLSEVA

CC(=O)NC(CCCCNC(=O)CNC(=O)C(CCC(=O)O)NC(=O)C(CO)NC(=O)C(CCC(=O)O)NC(=O)CS)C(=O)NCCCCCCCC(=O)NC(Cc1ccc(O)cc1)C(=O)NC(Cc1ccc2ccccc2c1)C(=O)NCCCCC(NC(=O)NC(CCC(=O)O)C(=O)O)C(=O)O (stereo not shown) [[^99mTc]Tc-BQ0500, metal not drawn]
intact tracer in PBS ([1]; PBS control, 37 °C, n = 3): 99.0 ± 0.5%
intact tracer in murine serum ([1]; mouse, 5 µg/mL): 99.7 ± 0.3%
Log D (octanol–water distribution coefficient) (physchem): −2.5 ± 0.1
activity uptake by PC3-pip cells (PC3-pip cells [2]; 2 nM tracer): 71 ± 4 % of added activity
activity uptake by PC3-pip cells after presaturation with PSMA-11 (PC3-pip cells [2]; 250-fold excess of nonlabeled PSMA-11, 2 nM tracer): significantly (p < 0.0001) decreased
B max1 (binding maximum) (PSMA; 5 nM tracer, 1:2 model (1:1 for BQ0413)): 881 CPS
B max2 (binding maximum) (PSMA; 5 nM tracer, 1:2 model, second interaction): 40 CPS
Kd (PSMA; 5 nM tracer, 1:2 model, second interaction, read-out: K D2): 0.052 nM
affinity compromised in comparison with [99mTc]Tc-BQ0413 (PSMA; PC3-pip cells): 3–5 fold
Kd (PSMA; as rounded in comparison table, read-out: K D1): 0.3 nM
Kd (PSMA; as rounded in comparison table, read-out: K D2): 0.05 nM
maximum of internalized activity (PC3-pip cells [3]): 42–43 % of cell-associated activity
activity uptake in intestines with content, higher compared to [99mTc]Tc-BQ0413 (PC3-pip xenografts; PC3-pip tumor-bearing mice, 5 nmol): 5.3 fold
activity in carcass (PC3-pip xenografts; [4]): 7 ± 1 ^b %IA/sample
activity in intestines with content (PC3-pip xenografts; [4]): 3.9 ± 0.4 ^b, ^c, ^d %IA/sample
activity uptake in blood (PC3-pip xenografts; [4]): 1.1 ± 0.2 ^b %IA/g
activity uptake in bone (PC3-pip xenografts; [4]): 0.5 ± 0.1 ^b, ^d %IA/g
activity uptake in kidney (PC3-pip xenografts; [4]): 51 ± 3 ^b ^c %IA/g
activity uptake in liver (PC3-pip xenografts; [4]): 0.9 ± 0.2 ^b %IA/g
activity uptake in lung (PC3-pip xenografts; [4]): 1.3 ± 0.2 ^b %IA/g
activity uptake in muscle (PC3-pip xenografts; [4]): 0.3 ± 0.1 ^b %IA/g
activity uptake in pancreas (PC3-pip xenografts; [4]): 0.4 ± 0.1 ^b %IA/g
activity uptake in salivary gland (PC3-pip xenografts; [4]): 0.7 ± 0.1 ^b ^, ^d %IA/g
activity uptake in small intestines (PC3-pip xenografts; [4]): 0.6 ± 0.2 ^c %IA/g
activity uptake in spleen (PC3-pip xenografts; [4]): 2.5 ± 0.2 ^b %IA/g
activity uptake in stomach (PC3-pip xenografts; [4]): 0.47 ± 0.02 ^d %IA/g
activity uptake in tumor (PC3-pip xenografts; [4]): 29 ± 3 %IA/g
tumor-to-blood ratio (PC3-pip xenografts; [4]): 28 ± 6 ^b
tumor-to-bone ratio (PC3-pip xenografts; [4]): 65 ± 15 ^b ^, ^d
tumor-to-kidney ratio (PC3-pip xenografts; [4]): 0.6 ± 0.1 ^b ^, ^c
tumor-to-liver ratio (PC3-pip xenografts; [4]): 32 ± 7 ^b
tumor-to-lung ratio (PC3-pip xenografts; [4]): 23 ± 4 ^b
tumor-to-muscle ratio (PC3-pip xenografts; [4]): 101 ± 28 ^b
tumor-to-pancreas ratio (PC3-pip xenografts; [4]): 69 ± 13
tumor-to-salivary gland ratio (PC3-pip xenografts; [4]): 42 ± 8 ^b ^, ^d
tumor-to-small intestines ratio (PC3-pip xenografts; [4]): 51 ± 20
tumor-to-spleen ratio (PC3-pip xenografts; [4]): 12 ± 2 ^b
tumor-to-stomach ratio (PC3-pip xenografts; [4]): 61 ± 7 ^d
activity in carcass (PC3-pip xenografts; [5]): 4 ± 1 ^d %IA/sample
activity in intestines with content (PC3-pip xenografts; [5]): 5.4 ± 0.3 ^c, ^d %IA/sample
activity uptake in blood (PC3-pip xenografts; [5]): 0.3 ± 0.1 ^c ^, ^d %IA/g
activity uptake in bone (PC3-pip xenografts; [5]): 0.10 ± 0.02 %IA/g
activity uptake in kidney (PC3-pip xenografts; [5]): 33 ± 3 ^c, ^d %IA/g
activity uptake in liver (PC3-pip xenografts; [5]): 0.4 ± 0.1 ^c %IA/g
activity uptake in lung (PC3-pip xenografts; [5]): 0.4 ± 0.1 ^c %IA/g
activity uptake in muscle (PC3-pip xenografts; [5]): 0.10 ± 0.03 %IA/g
activity uptake in pancreas (PC3-pip xenografts; [5]): 0.3 ± 0.2 %IA/g
activity uptake in salivary gland (PC3-pip xenografts; [5]): 0.2 ± 0.1 ^d %IA/g
activity uptake in small intestines (PC3-pip xenografts; [5]): 0.4 ± 0.2 %IA/g
activity uptake in spleen (PC3-pip xenografts; [5]): 1.4 ± 0.3 ^c %IA/g
activity uptake in stomach (PC3-pip xenografts; [5]): 1.6 ± 1.2 ^c %IA/g
tumor-to-bone ratio (PC3-pip xenografts; [5]): 341 ± 100 ^d
tumor-to-kidney ratio (PC3-pip xenografts; [5]): 1.0 ± 0.2 ^c
tumor-to-liver ratio (PC3-pip xenografts; [5]): 79 ± 22 ^c
tumor-to-lung ratio (PC3-pip xenografts; [5]): 71 ± 15 ^c
tumor-to-muscle ratio (PC3-pip xenografts; [5]): 332 ± 99
tumor-to-pancreas ratio (PC3-pip xenografts; [5]): 140 ± 82 ^c
tumor-to-salivary gland ratio (PC3-pip xenografts; [5]): 141 ± 42
tumor-to-small intestines ratio (PC3-pip xenografts; [5]): 94 ± 38 ^c
tumor-to-spleen ratio (PC3-pip xenografts; [5]): 22 ± 5 ^c
tumor-to-stomach ratio (PC3-pip xenografts; [5]): 38 ± 39 ^c
activity in carcass (PC3-pip xenografts; [6]): 4±1 %IA/sample
activity in intestines with content (PC3-pip xenografts; [6]): 5.4±0.3 %IA/sample
activity uptake in blood (PC3-pip xenografts; [6]): 0.3±0.1 %IA/g
activity uptake in bone (PC3-pip xenografts; [6]): 0.10±0.02 %IA/g
activity uptake in kidney (PC3-pip xenografts; [6]): 33±3 %IA/g
activity uptake in liver (PC3-pip xenografts; [6]): 0.4±0.1 %IA/g
activity uptake in lung (PC3-pip xenografts; [6]): 0.4±0.1 %IA/g
activity uptake in muscle (PC3-pip xenografts; [6]): 0.10±0.03 %IA/g
activity uptake in pancreas (PC3-pip xenografts; [6]): 0.3±0.2 %IA/g
activity uptake in salivary gland (PC3-pip xenografts; [6]): 0.2±0.1 %IA/g
activity uptake in small intestines (PC3-pip xenografts; [6]): 0.4±0.2 %IA/g
activity uptake in spleen (PC3-pip xenografts; [6]): 1.4±0.3 %IA/g
activity uptake in stomach (PC3-pip xenografts; [6]): 1.6±1.2 %IA/g
activity uptake in tumor (PC3-pip xenografts; [6]): 31±4 %IA/g
excretion pathway (PC3-pip xenografts; PC3-pip xenografts): predominantly renal
